According to patent publication US20060120980A1, “Novel dermatological composition using bio-activating organocatalysts” (priority 2004, published 2006):

Legend:
[1] = system: papilla-corium layer of skin; assay: bioreactive skin test (pin-head like projections, activation of the papilla-corium layer); assay type: in vivo; parameters: key: * = slight bioreactivity; *** = gross bioreactivity
Description: In this assay, compounds are applied to the dermis of an animal and potentially bio-reactive compounds (i.e., those which might function as bio-activating organocatalysts) produce a multiplicity of very small, pin-head like projections on the epidermis produced by activation of the papilla-corium layer. […] The bioreactivity of the formula can be judged by the intensity and time of the reaction.
The formula according to the present invention which are bioreactive in a skin test show a multiplicity of very small, pin-head like projections on the epidermis produced by activation of the papilla-corium layer. […] The activation ensues for about 2-4 hours and is from slight to gross depending on the formulation and returns to the normal skin landscape. The bioreactivity of the formula can be judged by the intensity and time of the reaction.
Essentially, the skin cream formulations containing organocatalyst are tested on skin. Those compositions which are bioreactive in the skin test show a multiplicity of very small, pin-head like projections on the epidermis produced by activation of the papilla-corium layer. The activation continues for about 2-4 hours and is from slight to gross depending on the formulation and returns to the normal skin landscape. The bioreactivity of the formula can be judged by the intensity and time of the reaction.

[2] = metal chelate; cited from earlier work
[3] = appearance of the final solution (Cosmetics, formulary consideration); assay type: physicochemical; conditions: appearance of final solution after reaction with Cu
Excerpt: In certain aspects of the present invention, the catalyst system using transition metals (Cu or Fe) as trace catalytic metals, may require the presence of an optional redox agent (antioxidant) so as to produce H2O2. In order to form hydrogen peroxide, for example, it is necessary for the redox agent to reduce Cu^++ to Cu^+. […] In expanding the number of antioxidants, the following table was assembled after experimentation, based upon reactivity with Cu, the ability to reduce CoQ10 to H2CoQ10 and the appearance of the final solution (formulary consideration).

[4] = solubility of organocatalyst in Eucerin skin cream (table comment); assay type: physicochemical; conditions: 20 % by weight in Eucerin skin cream
Description: In order to test the relative bioreactivity of organocatalysts according to the present invention, a number of potential organocatalysts were formulated into a skin cream using Eucerin™ at concentrations ranging from 2% to 25% by weight of the final skin cream formulation. These skin creams were formulated by dissolving the organocatalyst at a desired amount into the Eucerin. The formulated compositions were then tested for skin bioreactivity according to the method previously described hereinabove.

[5] = Table 1A, 20 % by weight in Eucerin skin cream
[6] = Table 1A, 2 % by weight in Eucerin skin cream
[7] = Table 1A, 25 % by weight in Eucerin skin cream

In the case of `O=C(O)[C@@H]1CCCN1` [1-proline], the Bioreactivity ([1]; in vivo) is reported as “*** and *”.
For Copper tripeptide (GHG), the “Affinity Constant” value [2] is listed as 10^16.
With `O=C([O-])C(O)C(O)C(=O)[O-].[Na+].[Na+]` (stereo not shown) [disodium tartrate, reference compound] the Bioreactivity [1, 5] was “no reactivity”.
For `Oc1ccccc1O.[Fe+3]` [Ferric catechol], the “Affinity Constant” value [2] is listed as 10^20.
With `O=C(O)c1cc(O)c(O)c(O)c1` [Gallic acid] the Cosmetics [3] was “ugly brown ppt”.
With `O=c1[nH]c(=O)c2[nH]c(=O)[nH]c2[nH]1` [Uric acid] the Cosmetics [3] was “slightly colored ppt”.
In the case of `N[C@@H](Cc1ccccc1)C(=O)O` [1-phenylalanine], the Bioreactivity ([1]; Table 1, 20 % by weight) is reported as “*”, the Bioreactivity [1, 5] is reported as “*” and the “Comment (solubility)” value [4] is reported as “low solubility”.
In the case of `N[C@@H](Cc1c[nH]cn1)C(=O)O.[Fe+2]` [Ferrous histidine], the “Affinity Constant” value [2] is listed as 10^16.
With `O=C(O)[C@@H]1CC(O)CN1` (stereo partly shown) [1-4-hydroxyproline] the Bioreactivity ([1]; Table 1, 2 % by weight) was “*”, the Bioreactivity ([1]; Table 1, 25 % by weight) was “***” and the Bioreactivity [1, 6] was “*”. For the same compound, the Bioreactivity [1, 7] was “***”.
In the case of Vitamin E, the Cosmetics [3] is reported as “ugly brown ppt”.
With `CC(=O)N[C@@H](CS)C(=O)O` [N-acetyl cysteine] the Cosmetics [3] was “clear solution”.
For Copper gluconate, the “Affinity Constant” value [2] is listed as 10^6.
For `C=C[C@H]1CN2CC[C@H]1C[C@H]2[C@H](O)c1ccnc2ccc(OC)cc12.O=S(=O)(O)O` [quinine hydrosulfate, reference compound], the Bioreactivity ([1]; Table 1, 2 % by weight) was “*” and the Bioreactivity [1, 6] was “*”.
For `O=C1NCC(C(=O)O)N1` (stereo not shown) [2-imidazolidone-4-carboxylic acid], the Bioreactivity ([1]; Table 1, 2 % by weight) was “*”, the Bioreactivity ([1]; Table 1, 20 % by weight) was “***” and the Bioreactivity [1, 6] was “*”. For the same compound, the Bioreactivity [1, 5] was “***”.
For `N[C@@H](CS)C(=O)O` [Cysteine], the Cosmetics [3] was “clear solution”.
In the case of `O=C(O)CCCC[C@@H]1CCSS1` (racemic) [Lipoic Acid], the Cosmetics [3] is reported as “clear solution”.
For `O=C([O-])CN(CCN(CC(=O)[O-])CC(=O)O)CC(=O)[O-].[Fe+3]` [Ferric EDTA], the “Affinity Constant” value [2] is given as 10^25.
For `CC(=O)N1CCC[C@H]1C(=O)O` [N-acetyl-1-proline], the Bioreactivity ([1]; Table 1, 20 % by weight) was “*”, the Bioreactivity [1, 5] was “*” and the “Comment (solubility)” value [4] was “low solubility”.
In the case of `O=C([O-])CN(CCN(CC(=O)[O-])CC(=O)O)CC(=O)O.[Cu+2]` [Copper EDTA], the “Affinity Constant” value [2] is given as 10^23.
With `CCCOC(=O)c1cc(O)c(O)c(O)c1` [Propyl gallate] the Cosmetics [3] was “ugly brown ppt”.
With `C=C[C@H]1C[N@@]2CC[C@H]1C[C@@H]2[C@@H](O)c1ccnc2ccc(OC)cc12` [quinidine, reference compound] the Bioreactivity ([1]; Table 1, 2 % by weight) was “*” and the Bioreactivity [1, 6] was “*”.
For `CC(=O)N(O)CCCCCNC(=O)CCC(=O)N(O)CCCCCNC(=O)CCC(=O)N(O)CCCCCN` [Desferrioxamine], the “Affinity Constant” value [2] is given as 10^30.
In the case of Copper lacate, the “Affinity Constant” value [2] is listed as 10^10-10^12.
In the case of `O=C(O)CO` [Glycolic acid], the “Affinity Constant” value [2] is given as 10^5.
With `N[C@@H](CCC(=O)N[C@@H](CS)C(=O)NCC(=O)O)C(=O)O` [Glutathione] the Cosmetics [3] was “clear solution”.
For `O=C(O)/C=C/c1ccc(O)c(O)c1` [Caffeic acid], the Cosmetics [3] was “dark brown ppt”.
With `O=C(O)C1CCCN1` (stereo not shown) [d,1-proline] the Bioreactivity ([1]; in vivo) was “***”.
In the case of `CC(O)C(=O)[O-].CC(O)C(=O)[O-].[Fe+2]` (stereo not shown) [Ferrous lactate], the “Affinity Constant” value [2] is listed as 10^12.
With `CC(C)(C)OC(=O)[C@@H]1CCCN1` [1-proline-t-butyl ester] the Bioreactivity ([1]; Table 1, 20 % by weight) was “***” and the Bioreactivity [1, 5] was “***”.
For `O=C(O)c1ccccc1O.[Fe+3]` [Ferric salicylic acid], the “Affinity Constant” value [2] is listed as 10^16.
In the case of `CC(O)CO` (stereo not shown) [propylene glycol, reference compound], the Bioreactivity [1, 7] is reported as “no reactivity”.
For `O=C([O-])CN(CCN(CC(=O)[O-])CC(=O)[O-])CC(=O)[O-].[Fe+2].[H+].[H+]` [Ferrous EDTA], the “Affinity Constant” value [2] is listed as 10^25.
For `N[C@@H](Cc1c[nH]cn1)C(=O)O.[Cu]` [Copper histidine], the “Affinity Constant” value [2] is listed as 10^16.
